Holding throughout (settings): HEK-293T
Test [1] has as its system Hepatitis C virus. In words: Antiviral activity against pseudo HCV infected in human 293T cells assessed as inhibition of HCV pseudo particles entry at 1 uM after 72 hrs by luciferase reporter gene assay. Type of test: functional, Hepacivirus hominis. On the technique in general: In a reporter assay the amount or activity of a reporter protein is the signal.
Test [2] has as its system Vesicular stomatitis virus. Nature of the test: Antiviral activity against pseudo VSV infected in human 293T cells assessed as inhibition of vesicular stromatis G protein pseudo particles entry at 1 uM after 72 hrs by luciferase reporter gene assay. Type of test: functional.
For test [3], the system named is Hepatitis C virus. Nature of the test: Antiviral activity against pseudo HCV infected in human 293T cells assessed as inhibition of HCV pseudo particles entry at 5 uM after 72 hrs by luciferase reporter gene assay. Type of test: functional, Hepacivirus hominis.
The subject of test [4] is Vesicular stomatitis virus. Nature of the test: Antiviral activity against pseudo VSV infected in human 293T cells assessed as inhibition of vesicular stromatis G protein pseudo particles entry at 5 uM after 72 hrs by luciferase reporter gene assay. Type of test: functional.

For orientation: inhibition means the drop in the measured response relative to a control, in per cent. Consider `COC(=O)[C@]12CCC(C)(C)C[C@H]1C1=CC[C@@H]3[C@@]4(C)CC[C@H](O[Si](C)(C)C(C)(C)C)C(C)(C)[C@@H]4CC[C@@]3(C)[C@]1(C)C[C@H]2O`, for which the inhibition at 1 µM in test [1] was 44.3%; in test [2], 27.4%. The inhibition at 5 µM is 27.8% in test [3] and 37.4% in test [4].
The like results for `CC1(C)CC[C@]2(C(=O)O)[C@H](O)C[C@]3(C)C(=CC[C@@H]4[C@@]5(C)CC[C@H](O)C(C)(C)[C@@H]5C[C@H](O)[C@]43C)[C@@H]2C1` were, in that order, 30.4%, 1.6%, 53.5% and 5.6%.
As for `CC(=O)O[C@@H]1[C@H](OC(=O)[C@]23CCC(C)(C)C[C@H]2C2=CC[C@@H]4[C@@]5(C)CC[C@H](O)C(C)(C)[C@@H]5CC[C@@]4(C)[C@]2(C)C[C@H]3O)OC[C@@H](OC(C)=O)[C@H]1OC(C)=O`, the inhibition at 1 µM in test [1] came to 19.3%; in test [2] it was 17.1%. For the same compound, the values for the inhibition at 5 µM in test [3] and in test [4] were 60.6% and 20.1%, respectively.
With `CC(=O)OC[C@H]1O[C@@H](OC(=O)[C@]23CCC(C)(C)C[C@H]2C2=CC[C@@H]4[C@@]5(C)CC[C@H](O)C(C)(C)[C@@H]5CC[C@@]4(C)[C@]2(C)C[C@H]3O)[C@H](OC(C)=O)[C@@H](OC(C)=O)[C@@H]1OC(C)=O`, the inhibition at 1 µM is 35.7% in test [1] and 3.7% in test [2]. The values for the inhibition at 5 µM in test [3] and in test [4] were 78.3% and 13.9%, respectively.
Regarding `CC1(C)CC[C@]2(C(=O)NCc3cn([C@@H]4OC[C@@H](O)[C@@H](O)[C@@H]4O)nn3)[C@H](O)C[C@]3(C)C(=CC[C@@H]4[C@@]5(C)CC[C@H](O)C(C)(C)[C@@H]5CC[C@]43C)[C@@H]2C1`, the inhibition at 1 µM in test [1] was 18.7%; in test [2], 8.4%. The inhibition at 5 µM in test [3] was 32.2%; in test [4] it was 25.1%.
As to `COC(=O)[C@]12CCC(C)(C)C[C@H]1C1=CC[C@@H]3[C@@]4(C)CC[C@H](OC)C(C)(C)[C@@H]4CC[C@@]3(C)[C@]1(C)C[C@H]2O`, the inhibition at 1 µM in test [1] was -14%; in test [2] it was 9.9%. Moreover, the inhibition at 5 µM in test [4] is 30.1%.
As to `COC(=O)[C@]12CCC(C)(C)C[C@H]1C1=CC[C@@H]3[C@@]4(C)CC=CC(C)(C)[C@@H]4CC[C@@]3(C)[C@]1(C)C[C@H]2O`, the results for the inhibition at 1 µM in test [1] and in test [2] were -3.3% and 7.6%, respectively. For the same compound, the values for the inhibition at 5 µM in test [3] and in test [4] were -8.9% and 9.7%, respectively.
In the case of `CC1(C)CC[C@]2(C(=O)O[C@@H]3O[C@H](CO)[C@@H](O[C@H]4O[C@H](CO)[C@@H](O)[C@H](O)[C@H]4O)[C@H](O)[C@H]3O)[C@H](O)C[C@]3(C)C(=CC[C@@H]4[C@@]5(C)CC[C@H](O)C(C)(C)[C@@H]5CC[C@]43C)[C@@H]2C1`, the inhibition at 1 µM in test [1] stood at 36.4%; in test [2] it was 21.6%. Also, the inhibition at 5 µM in test [3] turned out to be 43.7%; in test [4] it was 21.9%.
On to `CC1(C)CC[C@]2(C(=O)NCc3cn([C@@H]4OC[C@@H](O)[C@H](O)[C@@H]4O)nn3)[C@H](O)C[C@]3(C)C(=CC[C@@H]4[C@@]5(C)CC[C@H](O)C(C)(C)[C@@H]5CC[C@]43C)[C@@H]2C1`, for which the figures for the inhibition at 1 µM in test [1] and in test [2] were 20.3% and 7%, respectively. The inhibition at 5 µM in test [3] worked out at 43.2%; in test [4], 35.2%.
For the compound `CC1(C)CC[C@]2(C(=O)O)[C@H](O)C[C@]3(C)C(=CC[C@@H]4[C@@]5(C)[C@H](O)C[C@H](O)C(C)(C)[C@@H]5CC[C@]43C)[C@@H]2C1`, the figures for the inhibition at 1 µM in test [1] and in test [2] were 14.3% and 7.9%, respectively. For the same compound, the results for the inhibition at 5 µM in test [3] and in test [4] were 35.2% and 11.8%, respectively.
The like results for `COC(=O)[C@]12CCC(C)(C)C[C@H]1C1=CC[C@@H]3[C@@]4(C)CC[C@H](O[Si](C)(C)C(C)(C)C)C(C)(C)[C@@H]4CC[C@@]3(C)[C@]1(C)CC2=O` were, in that order, 11.5%, 45.3%, -3.8% and 40.2%.
For `CC(=O)OC[C@H]1O[C@H](O[C@H]2[C@H](OC(C)=O)[C@@H](OC(C)=O)[C@H](OC(=O)[C@]34CCC(C)(C)C[C@H]3C3=CC[C@@H]5[C@@]6(C)CC[C@H](O)C(C)(C)[C@@H]6CC[C@@]5(C)[C@]3(C)C[C@H]4O)O[C@@H]2COC(C)=O)[C@H](OC(C)=O)[C@@H](OC(C)=O)[C@@H]1OC(C)=O` the same measures were 36.5%, 20.9%, 50% and 23.4%.
The like results for `COC(=O)[C@]12CCC(C)(C)C[C@H]1C1=CC[C@@H]3[C@@]4(C)CC[C@H](O)C(C)(C)[C@@H]4CC[C@@]3(C)[C@]1(C)C[C@H]2OCc1ccccc1` were, in that order, 4.6%, 1.6%, 5.8% and -3.9%.
Take `CC1(C)CC[C@]2(C(=O)NCc3cn([C@@H]4O[C@H](CO)[C@@H](O)[C@H](O)[C@H]4O)nn3)[C@H](O)C[C@]3(C)C(=CC[C@@H]4[C@@]5(C)CC[C@H](O)C(C)(C)[C@@H]5CC[C@]43C)[C@@H]2C1`: the figures for the inhibition at 1 µM in test [1] and in test [2] were 12.4% and -15.2%, respectively. The inhibition at 5 µM came out at 33.1% in test [3] and 19.1% in test [4].
As to `CC1(C)CC[C@]2(C(=O)O[C@@H]3O[C@H](CO)[C@H](O)[C@H](O)[C@H]3O)[C@H](O)C[C@]3(C)C(=CC[C@@H]4[C@@]5(C)CC[C@H](O)C(C)(C)[C@@H]5CC[C@]43C)[C@@H]2C1`, the inhibition at 1 µM in test [1] is 40.9%; in test [2] it was 8.1%. In addition, the inhibition at 5 µM in test [3] came out at 61.6%; in test [4], 14.6%.
The like results for `CC(=O)O[C@@H]1[C@H](OC(C)=O)[C@H](n2cc(CNC(=O)[C@]34CCC(C)(C)C[C@H]3C3=CC[C@@H]5[C@@]6(C)CC[C@H](O)C(C)(C)[C@@H]6CC[C@@]5(C)[C@]3(C)C[C@H]4O)nn2)O[C@H](C)[C@H]1OC(C)=O` were, in that order, 17%, 32.6%, 71.6% and -10.7%.
Take `CC(=O)OC[C@H]1O[C@@H](n2cc(CNC(=O)[C@]34CCC(C)(C)C[C@H]3C3=CC[C@@H]5[C@@]6(C)CC[C@H](O)C(C)(C)[C@@H]6CC[C@@]5(C)[C@]3(C)C[C@H]4O)nn2)[C@@H](OC(C)=O)[C@@H](OC(C)=O)[C@@H]1OC(C)=O`: the figures for the inhibition at 1 µM in test [1] and in test [2] were 21.8% and -5.3%, respectively. Besides, the inhibition at 5 µM in test [3] stood at 81.5%; in test [4], 14.7%.
For the compound `COC(=O)[C@]12CCC(C)(C)C[C@H]1C1=CC[C@@H]3[C@@]4(C)CC[C@H](OS(=O)(=O)c5ccc(C)cc5)C(C)(C)[C@@H]4CC[C@@]3(C)[C@]1(C)C[C@H]2O`, the inhibition at 1 µM in test [1] amounted to 12.3%; in test [2], 38.3%. The inhibition at 5 µM in test [3] is 16.4%; in test [4], 39.3%.
The like results for `CC1(C)CC[C@]2(C(=O)NCc3cn([C@@H]4O[C@H](CO)[C@@H](O[C@@H]5O[C@H](CO)[C@@H](O)[C@H](O)[C@H]5O)[C@H](O)[C@H]4O)nn3)[C@H](O)C[C@]3(C)C(=CC[C@@H]4[C@@]5(C)CC[C@H](O)C(C)(C)[C@@H]5CC[C@]43C)[C@@H]2C1` were, in that order, 15.2%, 26.6%, 11.8% and 50.5%.
As to `CC(=O)OC[C@H]1O[C@@H](n2cc(CNC(=O)[C@]34CCC(C)(C)C[C@H]3C3=CC[C@@H]5[C@@]6(C)CC[C@H](O)C(C)(C)[C@@H]6CC[C@@]5(C)[C@]3(C)C[C@H]4O)nn2)[C@H](OC(C)=O)[C@@H](OC(C)=O)[C@@H]1O[C@@H]1O[C@H](COC(C)=O)[C@@H](OC(C)=O)[C@H](OC(C)=O)[C@H]1OC(C)=O`, the inhibition at 1 µM in test [1] came to 11.9%; in test [2] it was 36.8%. The figures for the inhibition at 5 µM in test [3] and in test [4] were 64.8% and 38.8%, respectively.
As to `CC1(C)CC[C@]2(C(=O)O[C@@H]3O[C@H](CO)[C@@H](O)[C@H](O)[C@H]3O)[C@H](O)C[C@]3(C)C(=CC[C@@H]4[C@@]5(C)CC[C@H](O)C(C)(C)[C@@H]5CC[C@]43C)[C@@H]2C1`, the inhibition at 1 µM in test [1] amounted to 30.6%; in test [2] it was 12.9%. In addition, the inhibition at 5 µM in test [3] is 67.5%; in test [4], 5.6%.
As for `CC(=O)O[C@H]1[C@H](OC(C)=O)[C@H](OC(C)=O)CO[C@H]1n1cc(CNC(=O)[C@]23CCC(C)(C)C[C@H]2C2=CC[C@@H]4[C@@]5(C)CC[C@H](O)C(C)(C)[C@@H]5CC[C@@]4(C)[C@]2(C)C[C@H]3O)nn1`, the inhibition at 1 µM in test [1] is 26.3%; in test [2], -6.6%. Besides, the inhibition at 5 µM amounted to 72.6% in test [3] and 20.9% in test [4].
On to `CC(=O)OC[C@H]1O[C@@H](n2cc(CNC(=O)[C@]34CCC(C)(C)C[C@H]3C3=CC[C@@H]5[C@@]6(C)CC[C@H](O)C(C)(C)[C@@H]6CC[C@@]5(C)[C@]3(C)C[C@H]4O)nn2)[C@H](OC(C)=O)[C@@H](OC(C)=O)[C@@H]1OC(C)=O`, for which the inhibition at 1 µM in test [1] is 20.3%; in test [2] it was -9.1%. Besides, the inhibition at 5 µM amounted to 89.7% in test [3] and 12.5% in test [4].
On to `COC(=O)[C@]12CCC(C)(C)C[C@H]1[C@H]1C(=O)C[C@@H]3[C@@]4(C)CC[C@H](O)C(C)(C)[C@@H]4CC[C@@]3(C)[C@]1(C)C[C@H]2O`, for which the inhibition at 1 µM in test [1] was determined as 4.9%; in test [2], 42.7%. Besides, the inhibition at 5 µM was -8.7% in test [3] and 46.1% in test [4].

The record behind these values is ChEMBL document CHEMBL2385072, “Development of oleanane-type triterpenes as a new class of HCV entry inhibitors” (J Med Chem, 2013).
